# Entries after “also recorded” stand apart in the source; their conditions may differ. Where no end group is shown, it is not given here.
# Columns and labels:
# Type in all cases: cell-based, human
# [1] = tested on: grass pollen allergic donor derived TCL-03 lines; experiment: Extended cross-reactivity study, proliferation on TCL03 DK1+DK2 (Study XR2), scoring; conditions: study XR2; for Cross-reactivity score, Dac g: homologue from Dac g; for Cross-reactivity score, Dac g / Cross-reactivity score, Fes p / Cross-reactivity score, Lol p / Cross-reactivity score, Pha a / Cross-reactivity score, Poa p / Cross-reactivity score, Cyn d / Cross-reactivity score, Pas n / Cross-reactivity score, Sor h: score 0 to 7; for Cross-reactivity score, Fes p: homologue from Fes p; for Cross-reactivity score, Lol p: homologue from Lol p; for Cross-reactivity score, Pha a: homologue from Pha a; for Cross-reactivity score, Poa p: homologue from Poa p; for Cross-reactivity sum: scores of all species added; for Cross-reactivity/species: sum divided by the number of species measured; for Cross-reactivity score, Cyn d: homologue from Cyn d; for Cross-reactivity score, Pas n: homologue from Pas n; for Cross-reactivity score, Sor h: homologue from Sor h
# [2] = tested on: grass allergic donor derived T cell lines (TCL-02 DK-2); experiment: Cross-reactivity of homologue peptides, proliferation on TCL02-DK2 (Study XR1); conditions: 2 μg/ml, TCL02-DK2, 21 donors
# Procedure: To measure the experimental cross-reactivity the proliferation assay of Example 3 was carried out on 21 grass allergic donors (TCL02-DK2). […] Cross-reactivity to Phleum pratense peptides with either close (Lolium perenne (Lol p)) or distant (Phalaris aquatica (Pha a), Cynodon dactylon (Cyn d)) species was experimentally investigated.
# For analysing the cross-reactivity data, it was investigated if a donor responds to both native and homologue peptide, XY correlation plots were made where the donor responses to native peptides were plotted versus the donor responses to homologues. […] If less than five donors were responding to the parent peptides, then the data was considered to be in-conclusive, and were thus labelled with “-”. For some of the peptides the analysis was further supported by performing a Spearman r-Non Parametric test (data not shown).
# Further the magnitude of T cell response from a parent peptide as defined herein and homologue response were plotted in a XY plot by using GraphPad Prism 6.
# To measure the experimental cross-reactivity, the proliferation assay of Example 3 was carried out on 21 grass pollen allergic donors (TCL02-DK2, Study XR1) and 20 grass pollen allergic donors (TCL03−DK1+DK2, Study XR2). […] In Study XR1, Cross-reactivity to Phleum pratense peptides with either close (Lolium perenne-Lol p) or distant ([…]-Pha a, Cynodon dactylon-Cyn d) species was experimentally investigated. In Study XR1, 67 homologue peptides corresponding to 41 native Phleum pratense peptides were investigated together with the 41 Phleum pratense peptides at a concentration of 2 μg/ml. Similarly, study XR2 was carried out on 20 grass pollen allergic donors where donor derived TCL-03 lines were used to investigate Phleum pratense cross-reactivity to Poa pratensis (Poa p), Dactylis glomerata (Dac g), Festuca pratensis (Fes p), Paspalum notatum (Pas n), Sorghum halepense (Sor h), Lolium perenne (Lol p), Phalaris aquatica (Pha a) and Cynodon dactylon (Cyn d).
# [3] = tested on: release of IL-5 upon T cell activation; experiment: Fluorospot assay, IL-5 release (DK1-TCL01, US1-TCL01); conditions: head prints TCL-02 DK1; text: 25 TCL-01 DK1 lines
# How it was run: (§1)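 Grass-allergic donors' CD8-depleted PBMCs were expanded 14 days with natural grass allergens plus IL-2 to give TCL01 lines. These were incubated 20 h at 37° C with single peptides or peptide mixes at 2 μg/ml, and spot-forming cells were counted. Hit: SI≥2, p≤0.05, Poisson ≤0.05, ≥20 SFC/10^6 cells.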
# [4] = tested on: release of IFN-γ upon T cell activation; experiment: Fluorospot assay, IFN-γ release (DK1-TCL01, US1-TCL01); conditions: head prints TCL-02 DK1; 17 TCL-01 DK1 lines
# How it was run: as §1
Substance,"Cross-reactivity score, Dac g [1]","Cross-reactivity score, Fes p [1]","Cross-reactivity score, Lol p [1]","Cross-reactivity score, Pha a [1]","Cross-reactivity score, Poa p [1]",Cross-reactivity sum [1],Cross-reactivity/species [1],"Cross-reactivity score, Cyn d [1]","Cross-reactivity score, Pas n [1]","Cross-reactivity score, Sor h [1]",experimental cross-reactivity [2],IL-5-Fluorospotr % donor coverage (TCL-02 DK1) [3] [%],IFN-gamma % donor coverage (TCL-02 DK1) [4] [%]
AYESYKFIPALEAAVKQAYA-OH [peptide 285],6,6,6,6,7,31,6.2,,,,,,
TDDNEEPIAPYHFDLSGHAF-OH [peptide 204],7,7,7,7,1.5,34,4.25,1.5,1,2,showed cross-reactivity; also recorded: good cross-reactivity,,
WGAIWRIDTPDKLTGPFTVR-OH [peptide 211],5,4,4,7,3,25,3.12,0.5,1,0.5,,,
PANDKFTVFEAAFNNAIKAS-OH [compound 70],,,,,,,,,,,showed cross-reactivity; also recorded: good cross reactivity,16.00,0.00
VATLSEALRIIAGTLEVHAV-OH [compound 67],,,,,,,,,,,showed cross-reactivity,32.00,4.00
STGGAYESYKFIPALEAAVK-OH [compound 71],5,5,5,5,4,24,4.8,,,,showed cross-reactivity; also recorded: very good cross-reactivity,32.00,0.00
DKYRTFVATFGAASNKAFAE-OH [peptide 231],,,,,,,,,,,showed cross-reactivity,,
